± gives the expanded uncertainty stated by the source.
Tests used:
[1] = Liquid, Ebulliometric method (Recirculating still)
[2] = refractive index (Na D-line) (dimensionless); details: 298.15 K; 101.33 kPa; Liquid; Standard Abbe refractometry

| refractive index [2] | vapor or sublimation pressure ([1]; 337.68 K) | vapor or sublimation pressure ([1]; 355.5 K) | SMILES | vapor or sublimation pressure ([1]; 375.14 K) |
| --- | --- | --- | --- | --- |
| 1.3261 ± 0.0007 | 101.3 ± 0.6 kPa | – | CO [methanol] | – |
| 1.375 ± 0.0007 | – | 101.3 ± 0.6 kPa | CC(C)O [propan-2-ol] | – |

| SMILES | refractive index [2] | vapor or sublimation pressure ([1]; 337.68 K) | vapor or sublimation pressure ([1]; 355.5 K) | vapor or sublimation pressure ([1]; 375.14 K) |
| --- | --- | --- | --- | --- |
| CCC(C)(C)O [2-methylbutan-2-ol] | 1.4018 ± 0.0007 | – | – | 101.3 ± 0.6 kPa |

— the NIST ThermoML archive (doi:10.1021/je060476j)
